Patent US9637472B2, “Substituted 6,5-fused bicyclic heteroaryl compounds” (Epizyme, Inc., priority 2011, dated 2017)

Target: EZH2 (Homo sapiens (Human), UniProt Q15910)
Test: PRC2 enzyme assay on peptide substrates
Format: biochemical
Conditions: PRC2 enzyme assays on peptide substrates; 4 nM enzyme, 30 min preincubation at 25° C.; read-out: EZH2 IC50
Excerpt: General Materials. S-adenosylmethionine (SAM), S-adenosylhomocyteine (SAH), bicine, KCl, Tween20, dimethylsulfoxide (DMSO) and bovine skin gelatin (BSG) were purchased from Sigma-Aldrich at the highest level of purity possible. Dithiothreitol (DTT) was purchased from EMD. ^3H-SAM was purchased from American Radiolabeled Chemicals with a specific activity of 80 Ci/mmol. 384-well streptavidin Flashplates were purchased from PerkinElmer.
Substrates. […] The sequences are listed below.
Recombinant PRC2 Enzymes. Human PRC2 enzymes were purified as 4-component enzyme complexes co-expressed in Spodoptera frugiperda (sf9) cells using a baculovirus expression system. The subunits expressed were wild-type EZH2 (NM_004456) or EZH2 Y641F, N, H, S or C mutants generated from the wild-type EZH2 construct, EED (NM_003797), Suz12 (NM_015355) and RbAp48 (NM_005610). The EED subunit contained an N-terminal FLAG tag that was used to purify the entire 4-component complex from sf9 cell lysates.
General Procedure for PRC2 Enzyme Assays on Peptide Substrates. The assays were all performed in a buffer consisting of 20 mM bicine (pH=7.6), 0.5 mM DTT, 0.005% BSG and 0.002% Tween20, prepared on the day of use. […] DMSO (1 μL) was added to columns 11, 12, 23, 24, rows A-H for the maximum signal control, and SAH, a known product and inhibitor of PRC2 (1 μL) was added to columns 11, 12, 23, 24, rows I-P for the minimum signal control. A cocktail (40 μL) containing the wild-type PRC2 enzyme and H3K27me0 peptide or any of the Y641 mutant enzymes and H3K27me2 peptide was added by Multidrop Combi (Thermo). The compounds were allowed to incubate with PRC2 for 30 min at 25° C., then a cocktail (10 μL) containing a mixture of non-radioactive and ^3H-SAM was added to initiate the reaction (final volume=51 μL). […] The assays were stopped by the addition of non-radioactive SAM (10 μL) to a final concentration of 600 μM, which dilutes the ^3H-SAM to a level where its incorporation into the peptide substrate is no longer detectable. 50 μL of the reaction in the 384-well polypropylene plate was then transferred to a 384-well Flashplate and the biotinylated peptides were allowed to bind to the streptavidin surface for at least 1 h before being washed three times with 0.1% Tween20 in a Biotek ELx405 plate washer. The plates were then read in a PerkinElmer TopCount platereader to measure the quantity of ^3H-labeled peptide bound to the Flashplate surface, measured as disintegrations per minute (dpm) or alternatively, referred to as counts per minute (cpm).
Where dpm=disintegrations per minute, cmpd=signal in assay well, and min and max are the respective minimum and maximum signal controls.
Where top and bottom are the normally allowed to float, but may be fixed at 100 or 0 respectively in a 3-parameter fit. The Hill Coefficient normally allowed to float but may also be fixed at 1 in a 3-parameter fit. Y is the % inhibition and X is the compound concentration.

Chain of EZH2 (Q15910 other isoform, or with tags, fused parts or gaps): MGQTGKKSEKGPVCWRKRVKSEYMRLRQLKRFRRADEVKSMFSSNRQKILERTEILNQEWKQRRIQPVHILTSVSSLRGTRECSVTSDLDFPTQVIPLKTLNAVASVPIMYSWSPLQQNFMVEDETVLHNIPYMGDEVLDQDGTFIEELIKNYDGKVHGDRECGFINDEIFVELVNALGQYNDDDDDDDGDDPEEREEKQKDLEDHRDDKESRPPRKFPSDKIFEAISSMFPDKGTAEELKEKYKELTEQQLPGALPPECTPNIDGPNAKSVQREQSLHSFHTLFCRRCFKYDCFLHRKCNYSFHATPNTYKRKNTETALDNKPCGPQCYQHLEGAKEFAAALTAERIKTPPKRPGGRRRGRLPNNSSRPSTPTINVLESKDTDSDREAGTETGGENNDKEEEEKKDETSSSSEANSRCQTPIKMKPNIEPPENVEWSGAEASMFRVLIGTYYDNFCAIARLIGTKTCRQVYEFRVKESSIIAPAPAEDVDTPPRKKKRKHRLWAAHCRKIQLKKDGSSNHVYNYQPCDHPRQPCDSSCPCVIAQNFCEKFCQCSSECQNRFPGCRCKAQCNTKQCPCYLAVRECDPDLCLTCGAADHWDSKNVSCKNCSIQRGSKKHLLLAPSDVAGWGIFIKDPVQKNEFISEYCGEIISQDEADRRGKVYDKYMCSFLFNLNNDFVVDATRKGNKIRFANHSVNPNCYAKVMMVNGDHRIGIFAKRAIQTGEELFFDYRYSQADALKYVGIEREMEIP
Chain of EZH2 (O75530 whole entry partner): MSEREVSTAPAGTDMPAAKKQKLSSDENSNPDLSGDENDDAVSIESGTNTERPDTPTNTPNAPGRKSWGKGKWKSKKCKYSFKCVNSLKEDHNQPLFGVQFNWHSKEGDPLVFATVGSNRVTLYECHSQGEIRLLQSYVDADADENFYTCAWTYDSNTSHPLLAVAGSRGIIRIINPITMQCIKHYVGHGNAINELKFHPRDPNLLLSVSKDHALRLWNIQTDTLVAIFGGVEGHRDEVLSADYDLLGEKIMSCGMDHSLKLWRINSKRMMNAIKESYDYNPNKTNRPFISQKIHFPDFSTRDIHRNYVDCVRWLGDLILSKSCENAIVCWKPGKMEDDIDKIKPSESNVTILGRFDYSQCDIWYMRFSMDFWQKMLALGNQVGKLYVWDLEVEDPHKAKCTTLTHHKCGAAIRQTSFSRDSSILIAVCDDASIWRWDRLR
Chain of EZH2 (Q15022 whole entry partner): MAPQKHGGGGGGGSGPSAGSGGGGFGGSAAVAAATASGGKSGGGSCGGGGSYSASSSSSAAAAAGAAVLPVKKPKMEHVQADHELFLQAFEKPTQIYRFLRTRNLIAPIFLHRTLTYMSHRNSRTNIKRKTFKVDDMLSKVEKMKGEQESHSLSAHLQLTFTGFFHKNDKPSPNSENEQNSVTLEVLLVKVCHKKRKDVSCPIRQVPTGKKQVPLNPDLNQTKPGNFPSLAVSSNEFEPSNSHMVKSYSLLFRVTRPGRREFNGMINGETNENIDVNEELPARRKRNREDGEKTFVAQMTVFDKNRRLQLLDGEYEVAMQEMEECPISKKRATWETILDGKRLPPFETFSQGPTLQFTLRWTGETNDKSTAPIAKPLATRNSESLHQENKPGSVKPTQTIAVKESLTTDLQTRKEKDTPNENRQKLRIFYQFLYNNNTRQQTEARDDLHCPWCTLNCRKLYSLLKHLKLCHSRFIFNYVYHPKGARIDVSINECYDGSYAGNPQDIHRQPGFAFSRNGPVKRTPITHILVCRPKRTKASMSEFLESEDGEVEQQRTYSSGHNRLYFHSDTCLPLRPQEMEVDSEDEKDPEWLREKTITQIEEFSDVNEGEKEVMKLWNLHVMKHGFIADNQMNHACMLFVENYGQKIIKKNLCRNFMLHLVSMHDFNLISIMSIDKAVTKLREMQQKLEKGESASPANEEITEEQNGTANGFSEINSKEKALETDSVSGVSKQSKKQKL
Chain of EZH2 (Q09028 whole entry partner): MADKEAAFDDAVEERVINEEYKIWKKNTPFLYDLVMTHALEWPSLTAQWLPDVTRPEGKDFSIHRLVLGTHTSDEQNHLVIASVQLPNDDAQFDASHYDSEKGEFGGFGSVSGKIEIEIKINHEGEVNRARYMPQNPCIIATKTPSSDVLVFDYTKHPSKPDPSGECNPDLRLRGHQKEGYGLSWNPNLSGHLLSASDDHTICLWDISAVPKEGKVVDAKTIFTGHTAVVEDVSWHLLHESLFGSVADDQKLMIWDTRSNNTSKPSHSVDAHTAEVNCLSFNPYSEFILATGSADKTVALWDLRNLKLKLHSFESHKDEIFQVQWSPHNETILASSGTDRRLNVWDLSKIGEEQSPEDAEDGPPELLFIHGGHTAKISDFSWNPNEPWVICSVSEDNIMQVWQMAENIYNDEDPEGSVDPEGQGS

| Structure (SMILES) | IC50 |
| --- | --- |
| CNC(=O)c1cc(C(=O)NCc2c(C)cc(C)[nH]c2=O)c2cnn(C(C)C)c2n1 [Compound B-18, N4-((4,6-dimethyl-2-oxo-1,2-dihydropyridin-3-yl)methyl)-1-isopropyl-N6-methyl-1H-pyrazolo[3,4-b]pyridine-4,6-dicarboxamide] | 1000 to 3000 nM |
| Cc1cc(C)c(CNC(=O)c2cc(C3=CC(C)(C)NC(C)(C)C3)nc3c2c(C)nn3C(C)C)c(=O)[nH]1 [Compound B-13, N-((4,6-dimethyl-2-oxo-1,2-dihydropyridin-3-yl)methyl)-1-isopropyl-3-methyl-6-(2,2,6,6-tetramethyl-1,2,3,6-tetrahydropyridin-4-yl)-1H-pyrazolo[3,4-b]pyridine-4-carboxamide] | 300 to 1000 nM |
| Cc1cc(C)c(CNC(=O)c2cc(COCCCN(C)C)cc3c2cnn3C2CCCC2)c(=O)[nH]1 [Compound D-87] | 3000 to 10000 nM |
| Cc1cc(CN2CCNC(=O)C2)c(CNC(=O)c2cc(Br)cc3c2cnn3C2CCCC2)c(=O)[nH]1 [Compound D-69] | 1000 to 3000 nM |
| CNCC(=O)N1CC=C(c2cc(C(=O)NCc3c(C)cc(C)[nH]c3=O)c3cnn(C4CCCC4)c3c2)CC1 [Compound D-45] | < 300 nM |
| Cc1cc(C)c(CNC(=O)c2cc(C3=CC(C)(C)NC(C)(C)C3)nc3c2cnn3CCN(C)C)c(=O)[nH]1 [Compound B-152] | 10000 to 50000 nM |
| Cc1cc(C)c(CNC(=O)c2cc(CN(C)CCCN(C)C)cc3c2cnn3C2CCCC2)c(=O)[nH]1 [Compound D-67] | 300 to 1000 nM |
| Cc1cc(C)c(CNC(=O)c2cc(C3=CCNCC3)nc3c2cnn3C(C)C)c(=O)[nH]1 [Compound B-60] | 300 to 1000 nM |
| Cc1cc(CN(C)CCCN(C)C)c(CNC(=O)c2cccc3c2cnn3C2CCCC2)c(=O)[nH]1 [Compound D-80] | 1000 to 3000 nM |
| Cc1cc(C)c(CNC(=O)c2cc(Br)cc3c2cnn3C2CCN(C3CCN(C)CC3)CC2)c(=O)[nH]1 [Compound D-16, 6-bromo-N-((4,6-dimethyl-2-oxo-1,2-dihydropyridin-3-yl)methyl)-1-(1′-methyl-[1,4′-bipiperidin]-4-yl)-1H-indazole-4-carboxamide] | < 300 nM |
| Cc1cc(C)c(CNC(=O)c2cc(Br)cc3c2cnn3C2CN(C(=O)C(C)(C)C)C2)c(=O)[nH]1 [Compound D-36] | 1000 to 3000 nM |
| Cc1cc(C)c(CNC(=O)c2cc(CN3CCOCC3)cc3c2cnn3C2CCCC2)c(=O)[nH]1 [Compound D-64] | 300 to 1000 nM |
| Cc1cc(C)c(CNC(=O)c2cc(C3=CCN(C4CCN(CCS(C)(=O)=O)CC4)CC3)nc3c2cnn3C(C)C)c(=O)[nH]1 [Compound B-33, N-((4,6-dimethyl-2-oxo-1,2-dihydropyridin-3-yl)methyl)-1-isopropyl-6-(1-(1-(2-(methylsulfonyl)ethyl)piperidin-4-yl)-1,2,3,6-tetrahydropyridin-4-yl)-1H-pyrazolo[3,4-b]pyridine-4-carboxamide] | < 300 nM |
| Cc1cc(C)c(CNC(=O)c2cc(C3CCN(C(=O)[C@H](C)N)CC3)nc3c2cnn3C(C)C)c(=O)[nH]1 [Compound B-105] | 1000 to 3000 nM |
| Cc1cc(C)c(CNC(=O)c2cc(C=O)cc3c2cnn3C2CCCC2)c(=O)[nH]1 [Compound D-43] | < 300 nM |
| Cc1cc(C)n(C)c(=O)c1CNC(=O)c1cc(-c2cccc(CN(C)CCN(C)C)c2)nc2c1CNN2C(C)C [Compound A-74] | 10000 to 50000 nM |
| Cc1cc(C)c(CNC(=O)c2cc(Br)cc3c2cnn3C2CCN(C(=O)C3CCC3)CC2)c(=O)[nH]1 [Compound D-98] | 300 to 1000 nM |
| Cc1cc(C)c(CNC(=O)c2cccc3c2cnn3C2CCCC2)c(=O)[nH]1 [Compound D-66] | 300 to 1000 nM |
| Cc1cc(COCCCN(C)C)c(CNC(=O)c2cc(Br)cc3c2cnn3C2CCCC2)c(=O)[nH]1 [Compound D-90] | 10000 to 50000 nM |
| Cc1cc(C)c(CNC(=O)c2cccc3c2ccn3C(C)C)c(=O)[nH]1 [Compound E-1] | 1000 to 3000 nM |
| Cc1cc(C)c(CNC(=O)c2cc(N(C)CCCN(C)C)nc3c2cnn3C(C)C)c(=O)[nH]1 [Compound B-91] | 1000 to 3000 nM |

| Structure (SMILES) | IC50 |
| --- | --- |
| Cc1cc(C)c(CNC(=O)c2cc(N3CCCC3)nc3c2cnn3C(C)C)c(=O)[nH]1 [Compound B-123] | 3000 to 10000 nM |
| Cc1cc(C)c(CNC(=O)c2cc(-c3ccc(N4CCN(C(=O)OC(C)(C)C)CC4)cc3)nc3c2cnn3C(C)C)c(=O)[nH]1 [Compound A-51] | 1000 to 3000 nM |
| Cc1cc(CN(C)C)c(CNC(=O)c2cccc3c2cnn3C2CCCC2)c(=O)[nH]1 [Compound D-81] | 3000 to 10000 nM |
| Cc1cc(C)c(CNC(=O)c2cc(C3CCN(S(C)(=O)=O)CC3)nc3c2cnn3C(C)C)c(=O)[nH]1 [Compound B-27, N-((4,6-dimethyl-2-oxo-1,2-dihydropyridin-3-yl)methyl)-1-isopropyl-6-(1-(methylsulfonyl)piperidin-4-yl)-1H-pyrazolo[3,4-b]pyridine-4-carboxamide] | 300 to 1000 nM |
| Cc1cc(C)c(CNC(=O)c2cc(Br)cc3c2cnn3C2CCN(C(=O)C3CCCC3)CC2)c(=O)[nH]1 [Compound D-26] | 300 to 1000 nM |
| Cc1cc[nH]c(=O)c1CNC(=O)c1cc(-c2cccc(CN(C)CCN(C)C)c2)nc2c1cnn2C(C)C [Compound A-70] | 3000 to 10000 nM |
| Cc1cc(C)c(CNC(=O)c2cc(C3=CCNCC3)cc3c2cnn3C2CCCC2)c(=O)[nH]1 [Compound D-41] | < 300 nM |
| Cc1cc(C)c(CNC(=O)c2cc(C3CCN(CCC(F)(F)F)CC3)nc3c2cnn3C(C)C)c(=O)[nH]1 [Compound B-71] | 300 to 1000 nM |
| Cc1ccc(CNC(=O)c2cc(-c3ccc(N4CCN(C)CC4)nc3)nc3c2cnn3C(C)C)c(=O)[nH]1 [Compound A-60] | 1000 to 3000 nM |
| Cc1cc(C)c(CNC(=O)c2cc(C3=CC(C)(C)NC(C)(C)C3)nc3c2cnn3C2CCCCC2)c(=O)[nH]1 [Compound B-16, 1-cyclohexyl-N-((4,6-dimethyl-2-oxo-1,2-dihydropyridin-3-yl)methyl)-6-(2,2,6,6-tetramethyl-1,2,3,6-tetrahydropyridin-4-yl)-1H-pyrazolo[3,4-b]pyridine-4-carboxamide] | < 300 nM |
| CCc1c(C)[nH]c(=O)c(CNC(=O)c2cc(C3=CC(C)(C)NC(C)(C)C3)nc3c2cnn3C(C)C)c1C [Compound B-122] | 3000 to 10000 nM |
| Cc1cc(C)c(CNC(=O)c2cc(C3CCN(C4CCNCC4)CC3)nc3c2cnn3C(C)C)c(=O)[nH]1 [Compound B-29, 6-([1,4′-bipiperidin]-4-yl)-N-((4,6-dimethyl-2-oxo-1,2-dihydropyridin-3-yl)methyl)-1-isopropyl-1H-pyrazolo[3,4-b]pyridine-4-carboxamide] | < 300 nM |
| Cc1cc(C)c(CNC(=O)c2cc(-c3ccc(N4CCN(C)CC4)nc3)nc3c2cnn3-c2ccccc2)c(=O)[nH]1 [Compound A-109] | 10000 to 50000 nM |
| Cc1cc(C)c(CNC(=O)c2cc(N3CCC(C4CCN(C)CC4)CC3)nc3c2cnn3C(C)C)c(=O)[nH]1 [Compound B-94] | 1000 to 3000 nM |
| Cc1cc(C)c(CNC(=O)c2cc(-c3cccnc3N3CCN(C(=O)OC(C)(C)C)CC3)nc3c2cnn3C(C)C)c(=O)[nH]1 [Compound A-95] | 3000 to 10000 nM |
| Cc1cc(C)c(CNC(=O)c2cc(Br)nc3c2cnn3C(C)C)c(=O)[nH]1 [Compound B-88] | 1000 to 3000 nM |
| CCc1c(C)[nH]c(=O)c(CNC(=O)c2cc(C3CC(C)(C)NC(C)(C)C3)nc3c2cnn3C(C)C)c1C [Compound B-137] | 3000 to 10000 nM |
| Cc1cc(C)c(CNC(=O)c2cc(CN3CCNC(=O)C3)cc3c2cnn3C2CCCC2)c(=O)[nH]1 [Compound D-94] | 300 to 1000 nM |
| Cc1cc(C)c(CNC(=O)c2cc(-c3cccnc3)cc3c2cnn3C2CCCC2)c(=O)[nH]1 [Compound C-21] | < 300 nM |
| Cc1cc(C)c(CNC(=O)c2cc(-c3ccc(N4CCN(C(=O)OC(C)(C)C)CC4)nc3)nc3c2cnn3C(C)C)c(=O)[nH]1 [Compound A-6, tert-butyl 4-(5-(4-(((4,6-dimethyl-2-oxo-1,2-dihydropyridin-3-yl)methyl)carbamoyl)-1-isopropyl-1H-pyrazolo[3,4-b]pyridin-6-yl)pyridin-2-yl)piperazine-1-carboxylate] | 300 to 1000 nM |
| Cc1cc(C)c(CNC(=O)c2cc(C3=CCOCC3)nc3c2cnn3C(C)C)c(=O)[nH]1 [Compound B-80] | 300 to 1000 nM |
